# Experimental data as given in PubChem BioAssay AID1259407 (Chemical Carcinogenesis Research Information System (CCRIS), 2018).
# The source made the active and inactive calls. How the calls were made is not given here.
# Tested on: CCRIS mutagenicity, Ames/micronucleus/aberration tests
# Test: CCRIS mutagenicity studies
# [1] = Test System: AMES SALMONELLA TYPHIMURIUM, Strain/Indicator: TA98, Metabolic Activation: NONE, Method: PREINCUBATION
# [2] = Test System: AMES SALMONELLA TYPHIMURIUM, Strain/Indicator: TA100, Metabolic Activation: NONE, Method: PREINCUBATION
# [3] = Test System: AMES SALMONELLA TYPHIMURIUM, Strain/Indicator: TA1535, Metabolic Activation: NONE, Method: PREINCUBATION
# [4] = Test System: AMES SALMONELLA TYPHIMURIUM, Strain/Indicator: TA1537, Metabolic Activation: NONE, Method: PREINCUBATION
smiles,measurement,setting,value
C=CCc1ccc(OC)cc1,mutagenic call,"Test System: AMES SALMONELLA TYPHIMURIUM, Strain/Indicator: TA98, Metabolic Activation: HAMSTER, LIVER, S-9, AROCLOR 1254 (10%), Method: PREINCUBATION",inactive; negative
same,mutagenic call,[1],inactive; negative
same,mutagenic call,"Test System: AMES SALMONELLA TYPHIMURIUM, Strain/Indicator: TA98, Metabolic Activation: NONE, Method: STANDARD PLATE",inactive; negative
same,mutagenic call,"Test System: AMES SALMONELLA TYPHIMURIUM, Strain/Indicator: TA98, Metabolic Activation: RAT, LIVER, S-9, AROCLOR 1254 (10%), Method: PREINCUBATION",inactive; negative
same,mutagenic call,"Test System: AMES SALMONELLA TYPHIMURIUM, Strain/Indicator: TA98, Metabolic Activation: RAT, LIVER, S-9, AROCLOR 1254, Method: STANDARD PLATE",inactive; negative
same,mutagenic call,"Test System: AMES SALMONELLA TYPHIMURIUM, Strain/Indicator: TA100, Metabolic Activation: HAMSTER, LIVER, S-9, AROCLOR 1254 (10%), Method: PREINCUBATION",inactive; negative
same,mutagenic call,[2],inactive; negative
same,mutagenic call,"Test System: AMES SALMONELLA TYPHIMURIUM, Strain/Indicator: TA100, Metabolic Activation: NONE, Method: STANDARD PLATE",inactive; negative
same,mutagenic call,"Test System: AMES SALMONELLA TYPHIMURIUM, Strain/Indicator: TA100, Metabolic Activation: RAT, LIVER, S-9, AROCLOR 1254 (10%), Method: PREINCUBATION",inactive; negative
same,mutagenic call,"Test System: AMES SALMONELLA TYPHIMURIUM, Strain/Indicator: TA100, Metabolic Activation: RAT, LIVER, S-9, AROCLOR 1254, Method: STANDARD PLATE",inactive; negative
same,mutagenic call,"Test System: AMES SALMONELLA TYPHIMURIUM, Strain/Indicator: TA1535, Metabolic Activation: HAMSTER, LIVER, S-9, AROCLOR 1254 (10%), Method: PREINCUBATION",inactive; negative
same,mutagenic call,[3],inactive; negative
same,mutagenic call,"Test System: AMES SALMONELLA TYPHIMURIUM, Strain/Indicator: TA1535, Metabolic Activation: NONE, Method: STANDARD PLATE",inactive; negative
same,mutagenic call,"Test System: AMES SALMONELLA TYPHIMURIUM, Strain/Indicator: TA1535, Metabolic Activation: PAPS, Method: STANDARD PLATE",inactive; negative
same,mutagenic call,"Test System: AMES SALMONELLA TYPHIMURIUM, Strain/Indicator: TA1535, Metabolic Activation: RAT, LIVER, S-9, AROCLOR 1254 (10%), Method: PREINCUBATION",inactive; negative
same,mutagenic call,"Test System: AMES SALMONELLA TYPHIMURIUM, Strain/Indicator: TA1535, Metabolic Activation: RAT, LIVER, S-9, AROCLOR 1254, PAPS, Method: STANDARD PLATE",active; positive
same,mutagenic call,"Test System: AMES SALMONELLA TYPHIMURIUM, Strain/Indicator: TA1535, Metabolic Activation: RAT, LIVER, S-9, AROCLOR 1254, Method: STANDARD PLATE",inactive; negative
same,mutagenic call,"Test System: AMES SALMONELLA TYPHIMURIUM, Strain/Indicator: TA1537, Metabolic Activation: HAMSTER, LIVER, S-9, AROCLOR 1254 (10%), Method: PREINCUBATION",inactive; negative
same,mutagenic call,[4],inactive; negative
same,mutagenic call,"Test System: AMES SALMONELLA TYPHIMURIUM, Strain/Indicator: TA1537, Metabolic Activation: NONE, Method: STANDARD PLATE",inactive; negative
same,mutagenic call,"Test System: AMES SALMONELLA TYPHIMURIUM, Strain/Indicator: TA1537, Metabolic Activation: RAT, LIVER, S-9, AROCLOR 1254 (10%), Method: PREINCUBATION",inactive; negative
same,mutagenic call,"Test System: AMES SALMONELLA TYPHIMURIUM, Strain/Indicator: TA1537, Metabolic Activation: RAT, LIVER, S-9, AROCLOR 1254, Method: STANDARD PLATE",inactive; negative
same,mutagenic call,"Test System: AMES SALMONELLA TYPHIMURIUM, Strain/Indicator: TA1538, Metabolic Activation: NONE, Method: STANDARD PLATE",inactive; negative
same,mutagenic call,"Test System: AMES SALMONELLA TYPHIMURIUM, Strain/Indicator: TA1538, Metabolic Activation: RAT, LIVER, S-9, AROCLOR 1254, Method: STANDARD PLATE",inactive; negative
same,mutagenic call,"Test System: UDS RAT HEPATOCYTES, Strain/Indicator: THY INCORP, Metabolic Activation: NONE, Method: IN VITRO",active; positive
same,mutagenic call,"Test System: UDS RAT HEPATOCYTES, Strain/Indicator: THY INCORP, Metabolic Activation: NONE, Method: IN VIVO",active; positive
Oc1ccc(Cl)c(Cl)c1,mutagenic call,"Test System: AMES SALMONELLA TYPHIMURIUM, Strain/Indicator: TA98, Metabolic Activation: HAMSTER, LIVER, S-9, AROCLOR 1254, Method: PREINCUBATION",inactive; negative
same,mutagenic call,[1],inactive; negative
same,mutagenic call,"Test System: AMES SALMONELLA TYPHIMURIUM, Strain/Indicator: TA98, Metabolic Activation: RAT, LIVER, S-9, AROCLOR 1254, Method: PREINCUBATION",inactive; negative
same,mutagenic call,"Test System: AMES SALMONELLA TYPHIMURIUM, Strain/Indicator: TA100, Metabolic Activation: HAMSTER, LIVER, S-9, AROCLOR 1254, Method: PREINCUBATION",inactive; negative
same,mutagenic call,[2],inactive; negative
same,mutagenic call,"Test System: AMES SALMONELLA TYPHIMURIUM, Strain/Indicator: TA100, Metabolic Activation: RAT, LIVER, S-9, AROCLOR 1254, Method: PREINCUBATION",inactive; negative
same,mutagenic call,"Test System: AMES SALMONELLA TYPHIMURIUM, Strain/Indicator: TA1535, Metabolic Activation: HAMSTER, LIVER, S-9, AROCLOR 1254, Method: PREINCUBATION",inactive; negative
same,mutagenic call,[3],inactive; negative
same,mutagenic call,"Test System: AMES SALMONELLA TYPHIMURIUM, Strain/Indicator: TA1535, Metabolic Activation: RAT, LIVER, S-9, AROCLOR 1254, Method: PREINCUBATION",inactive; negative
same,mutagenic call,"Test System: AMES SALMONELLA TYPHIMURIUM, Strain/Indicator: TA1537, Metabolic Activation: HAMSTER, LIVER, S-9, AROCLOR 1254, Method: PREINCUBATION",inactive; negative
same,mutagenic call,[4],inactive; negative
same,mutagenic call,"Test System: AMES SALMONELLA TYPHIMURIUM, Strain/Indicator: TA1537, Metabolic Activation: RAT, LIVER, S-9, AROCLOR 1254, Method: PREINCUBATION",inactive; negative
CCc1ccnc2ccccc12,mutagenic call,"Test System: AMES SALMONELLA TYPHIMURIUM, Strain/Indicator: TA100, Metabolic Activation: RAT, LIVER, S-9, Method: PREINCUBATION",inactive; negative
Cc1c(C(=O)O)c(O)cc2c1C(=O)c1c(O)c([C@@H]3O[C@@H](CO)[C@H](O)[C@@H](O)[C@H]3O)c(O)c(O)c1C2=O,mutagenic call,"Test System: AMES SALMONELLA TYPHIMURIUM, Strain/Indicator: TA100, Method: PREINCUBATION",active; positive
II,mutagenic call,"End Point: IN VITRO CHROMOSOMAL ABERRATIONS, Test System: SYRIAN HAMSTER EMBRYO (SHE) CELLS, Metabolic Activation: NONE",active; positive (structural changes)
